Data published in patent US10736967B2, “Method of preparing cyclodextrin complexes” (Panaceanano, Inc., priority 2016, dated 2020).

What was measured:
[1] = Water solubility of salicylic acid by UV-VIS: loaded in γCD-MOF, without additive, or with γCD and KOH; assay type: physicochemical
Experimental: The dry, loaded CD-MOF samples were then dissolved in 10 mL water and stirred.
All water solubility shown in FIGS. 2-4 below were measured at room temperature.

[2] = cited from earlier work
[3] = 30% loading (150 mg salicylic acid) in a 500 mg γCD-MOF sample, room temperature, FIG. 3 curve 20
[4] = added directly into a solution containing equivalent amounts of γCD and KOH (500 mg sample), room temperature, FIG. 3 curve 22
[5] = un-complexed salicylic acid in the absence of a CD-MOF, room temperature, FIG. 3 curve 21

Structure (SMILES) | percentage of solubilized salicylic acid in 10 mL of water compared with no additive ([1]; 100 mg CD-MOF sample, loading percentage range of about 25-500%, FIG. 2 curve 10 vs curve 11) | amount of salicylic acid solubilized in 10 mL of water (maximum reached) ([1]; 500 mg CD-MOF sample used as intermediate, room temperature, FIG. 4 curve 31) | percentage of solubilized salicylic acid in 10 mL of water compared with no additive and with γCD and KOH ([1]; 500 mg CD-MOF sample, loading percentage 10-100%, FIG. 3 curve 20 vs curves 21 and 22) | amount of salicylic acid solubilized in 10 mL of water [1, 3] | percentage of solubilized salicylic acid in 10 mL of water [1, 3] | maximum amount of salicylic acid dissolved in 10 mL of water ([1]; absence of any additive, room temperature, FIG. 4 curve 33) | amount of salicylic acid solubilized in 10 mL of water [1, 4] | percentage of solubilized salicylic acid in 10 mL of water [1, 4] | amount of salicylic acid solubilized in 10 mL of water [1, 5] | percentage of solubilized salicylic acid in 10 mL of water [1, 5] | solubility in water [2]
O=C(O)c1ccccc1O [salicylic acid] | higher | up to 110 mg | significantly higher | about 103 mg | about 69% | about 20 mg | about 58.5 mg | approximately 39% | about 20 mg | approximately 13% | –
OC[C@H]1O[C@@H]2O[C@H]3[C@H](O)[C@@H](O)[C@@H](O[C@H]4[C@H](O)[C@@H](O)[C@@H](O[C@H]5[C@H](O)[C@@H](O)[C@@H](O[C@H]6[C@H](O)[C@@H](O)[C@@H](O[C@H]7[C@H](O)[C@@H](O)[C@@H](O[C@H]1[C@H](O)[C@H]2O)O[C@@H]7CO)O[C@@H]6CO)O[C@@H]5CO)O[C@@H]4CO)O[C@@H]3CO [α-CD, α cyclodextrin] | – | – | – | – | – | – | – | – | – | – | about 145 mg/mL
